Experimental findings from the CombiSolv-Exp solvation set (Vermeire and Green 2021) are described below.

Each structure is given as a SMILES string.

A short description of this series: solvent given as SMILES.
Setting [1] is: in CCCCCCCCC=CCCCCCCCC(=O)OCC(COC(=O)CCCCCCCC=CCCCCCCCC)OC(=O)CCCCCCCC=CCCCCCCCC

`c1ccc2c(c1)-c1cccc3cccc-2c13`: the “solvation free energy, 298 K” value reads like this: (in C1COCCO1) -13 kcal/mol; (in CC(=O)N(C)C) -13.2 kcal/mol; (in CC(C)CC(C)(C)C) -11.2 kcal/mol; (in CC(C)CC(C)O) -11.2 kcal/mol; (in CC(C)CCO) -11.2 kcal/mol; (in CC(C)CO) -11.1 kcal/mol. The “solvation free energy, 298 K” value (in CC(C)O) was -11.1 kcal/mol; the “solvation free energy, 298 K” value (in CCC(C)(C)O) is -11.3 kcal/mol; the “solvation free energy, 298 K” value (in CCC(C)O) is -11.2 kcal/mol; the “solvation free energy, 298 K” value (in CCCC(C)CO) is -11.4 kcal/mol; the “solvation free energy, 298 K” value (in CCCC(C)O) is -11.4 kcal/mol; the “solvation free energy, 298 K” value (in CCCCC(CC)CO) was -11.5 kcal/mol. Further, the “solvation free energy, 298 K” value was -11.5 kcal/mol (in CCCCCC); -11.6 kcal/mol (in CCCCCCC); -11.6 kcal/mol (in CCCCCCCC); -12.2 kcal/mol under setting [1]; -11.7 kcal/mol (in CCCCCCCCCC); -11.8 kcal/mol (in CCCCCCCCO). In addition, the “solvation free energy, 298 K” value is -11.9 kcal/mol (in CCCCCCCO); -11.7 kcal/mol (in CCCCCCO); -11.6 kcal/mol (in CCCCCO); -12.8 kcal/mol (in CCCCCl); -11.5 kcal/mol (in CCCCO); -12.7 kcal/mol (in CCCCOC(C)=O). The “solvation free energy, 298 K” value (in CCCCOCCCC) is -12.1 kcal/mol; the “solvation free energy, 298 K” value (in CCCO) was -11.3 kcal/mol; the “solvation free energy, 298 K” value (in CCO) is -11.4 kcal/mol; the “solvation free energy, 298 K” value (in CCOC(C)=O) is -12.7 kcal/mol; the “solvation free energy, 298 K” value (in CCOCC) was -12.4 kcal/mol; the “solvation free energy, 298 K” value (in CN(C)C=O) is -13.2 kcal/mol. Further, the “solvation free energy, 298 K” value by setting is: (in CO) -11.2 kcal/mol; (in COC(C)(C)C) -12.2 kcal/mol; (in ClC(Cl)(Cl)Cl) -12.7 kcal/mol; (in ClC(Cl)Cl) -13 kcal/mol; (in ClCCCl) -13 kcal/mol; (in O) -4.69 kcal/mol.
For `CN(C)c1ccccc1`, the “solvation free energy, 298 K” value by setting is: (in CCCCCCCCCCCCCCCC) -6.4 kcal/mol; (in O) -3.45 kcal/mol.
Consider `CC(C)C(C)(C)C`, for which the “solvation free energy, 298 K” value by setting is: (in C=CCCCCCCCCCCCCCC) -3.77 kcal/mol; (in CN1CCCC1=O) -2.78 kcal/mol; (in O) 2.62 kcal/mol.
Turning to `Cc1cnccn1`, the “solvation free energy, 298 K” value (in O) is -5.51 kcal/mol.
As to `FC(F)(F)C(F)(F)C(F)(F)C(F)(F)C(F)(F)C(F)(F)C(F)(F)F`, the “solvation free energy, 298 K” value is -2.35 kcal/mol (in CCCCCCC), -1.29 kcal/mol (in CCCCO), -1.24 kcal/mol (in CCCO) and -0.45 kcal/mol (in S=C=S).
As for `FC(Cl)(Cl)C(F)(Cl)Cl`, the “solvation free energy, 298 K” value was -4.82 kcal/mol (in C1CCOC1); -4.46 kcal/mol (in C1COCCO1); -4.45 kcal/mol (in CC(C)=O); -4.43 kcal/mol (in CCCCCC); -3.98 kcal/mol (in CCCCCCC); -3.64 kcal/mol (in CCCO). Also, the “solvation free energy, 298 K” value runs as follows: (in CCOC(C)=O) -4.62 kcal/mol; (in COC(C)(C)C) -4.68 kcal/mol; (in O) 0.87 kcal/mol.
In the case of `CCCCCCCCCCCCCCC`, under “in O”, the “solvation free energy, 298 K” value worked out at 4.29 kcal/mol.
For the compound `O=S=O`, the “solvation free energy, 298 K” value was -1.26 kcal/mol (in C1CCC2CCCCC2C1); -1.23 kcal/mol (in C1CCCCC1); -3.93 kcal/mol (in C1CCOC1); -3.41 kcal/mol (in C1COCCO1); -3.16 kcal/mol (in CC1COC(=O)O1); -3.25 kcal/mol (in CC#N). In addition, the “solvation free energy, 298 K” value is -3.52 kcal/mol (in CC(=O)N(C)C); -3.52 kcal/mol (in CC(C)=O); -1.17 kcal/mol (in CC(C)CC(C)(C)C); -1.36 kcal/mol (in CCCCCCC); -1.01 kcal/mol (in CCCCCCCC); -1.1 kcal/mol (in CCCCCCCCCCCCCCCC). Further, the “solvation free energy, 298 K” value was -3.22 kcal/mol (in CCOC(C)=O); -3.11 kcal/mol (in CN1CCCC1=O); -2.84 kcal/mol (in CO); -2.82 kcal/mol (in COC(=O)CC#N); -3.08 kcal/mol (in COC(C)=O); -4.09 kcal/mol (in COCCOCCO). Moreover, the “solvation free energy, 298 K” value (in COCCOCCOC) was -4.02 kcal/mol; the “solvation free energy, 298 K” value (in COCCOCCOCCOC) is -3.89 kcal/mol; the “solvation free energy, 298 K” value (in COCCOCCOCCOCCOC) is -3.85 kcal/mol; the “solvation free energy, 298 K” value (in CS(C)=O) was -4.71 kcal/mol; the “solvation free energy, 298 K” value (in ClCCCl) is -2.55 kcal/mol; the “solvation free energy, 298 K” value (in N#Cc1ccccc1) is -2.59 kcal/mol. Also, the “solvation free energy, 298 K” value is, setting by setting: (in O) -2.07 kcal/mol; (in OCCO) -2.88 kcal/mol; (in OCc1ccccc1) -2.8 kcal/mol; (in c1ccncc1) -4.82 kcal/mol.
As for `CN(C)N=O`, the “solvation free energy, 298 K” value (in CC(C)CC(C)(C)C) is -3.83 kcal/mol and the “solvation free energy, 298 K” value (in O) was -6.02 kcal/mol.
Take `COC(=O)c1cc(OC)c(O)c(-c2cc(C(=O)OC)cc(OC)c2O)c1`: the “solvation free energy, 298 K” value (in CCC(C)=O) was -20.8 kcal/mol; the “solvation free energy, 298 K” value (in CCCO) is -20.8 kcal/mol; the “solvation free energy, 298 K” value (in ClC=CCl) was -21.7 kcal/mol; the “solvation free energy, 298 K” value (in O) is -17.3 kcal/mol.
In the case of `CNCCc1ccc(OC)cc1`, the “solvation free energy, 298 K” value reads like this: (in C=CCCCCCCC=C) -9.47 kcal/mol; (in O) -7.94 kcal/mol.
On to `Clc1cc(Cl)c(Cl)c(Cl)c1`, for which the “solvation free energy, 298 K” value (in CCCCCCCCO) is -7.57 kcal/mol and the “solvation free energy, 298 K” value (in O) is -1.62 kcal/mol.
For `OC1CCCC1`, the “solvation free energy, 298 K” value reads like this: (in C1COCCO1) -6.33 kcal/mol; (in CC(C)=O) -6.28 kcal/mol; (in O) -5.5 kcal/mol.
Take `CCNc1ccccc1`: the “solvation free energy, 298 K” value (in O) was -4.76 kcal/mol.
Regarding `O=C(O)CCCCCCCCC(=O)O`, the “solvation free energy, 298 K” value was -17 kcal/mol (in CCC(C)O); -16.7 kcal/mol (in CCCCCCO); -16.9 kcal/mol (in CCCCCO); -17.1 kcal/mol (in CCCCO); -17.2 kcal/mol (in CCCO).
`COc1ccc2c(c1)c(CC(=O)O)c(C)n2C(=O)c1ccc(Cl)cc1`: the “solvation free energy, 298 K” value (in O) is -15.1 kcal/mol.
For `CCNc1nc(NC(C)CC)nc(OC)n1` (stereo unspecified), the “solvation free energy, 298 K” value (in O) was -9.89 kcal/mol.
Regarding `CCCC(=O)OCC`, the “solvation free energy, 298 K” value was -4.69 kcal/mol (in CCCCCCCC); -4.54 kcal/mol (in CCCCCCCCCCCCCCCC); -4.86 kcal/mol (in CCCCCCCCO); -4.9 kcal/mol (in CN1CCCC1=O); -2.52 kcal/mol (in O); -4.61 kcal/mol (in O=CN1CCOCC1). Further, for the setting “in [2H]O[2H]”, the “solvation free energy, 298 K” value is -2.59 kcal/mol.
For `O=C1NC(=O)c2ccccc21`, under “in O”, the “solvation free energy, 298 K” value was -9.61 kcal/mol.
On the same count and under the same terms, then `Cc1nnc(NS(=O)(=O)c2ccc(N)cc2)s1`, with -19.3 kcal/mol; and `Cc1ccc2ccccc2c1`, with -2.18 kcal/mol.
Still for that read-out and setting: then `COC(C)(OC)OC`, with -4.42 kcal/mol.
Take `c1ccc2c(c1)ccc1c3ccccc3ccc21`: the “solvation free energy, 298 K” value runs as follows: under setting [1], -13.9 kcal/mol; (in O) -6.53 kcal/mol.
Take `CCCCCCCCCC(C)C`: the “solvation free energy, 298 K” value (in O) is 4.04 kcal/mol.
Same read-out and setting: then `CC1=CCC(=C(C)C)CC1`, with 0.16 kcal/mol; and `CN1CCNCC1`, with -7.77 kcal/mol.
On the same count and under the same terms, then `C=CC(C)(C)O`, with -4.19 kcal/mol.
As to `c1ccsc1`, the “solvation free energy, 298 K” value by setting is: (in CC(C)O) -3.75 kcal/mol; (in CCCCCCC) -4.09 kcal/mol; (in CCCO) -3.71 kcal/mol; (in CN1CCCC1=O) -4.68 kcal/mol; (in O) -1.39 kcal/mol; (in O=CN1CCOCC1) -4.39 kcal/mol. Also, the “solvation free energy, 298 K” value (in c1ccccc1) is -4.65 kcal/mol.
As to `Nc1ccc(S(=O)(=O)Nc2ccnn2-c2ccccc2)cc1`, the “solvation free energy, 298 K” value (in O) was -21.2 kcal/mol.
On to `N#Cc1ccncc1`, for which, for the setting “in O”, the “solvation free energy, 298 K” value is -6.02 kcal/mol.
Still for that read-out and setting: to `CCCCN(CCCC)CCCC` belongs -4.09 kcal/mol; to `COc1cc(C=O)ccc1O`, -8.76 kcal/mol.
For the compound `CCOC(=O)c1ccc(N)cc1`, the “solvation free energy, 298 K” value runs as follows: (in CC(C)CCO) -11.1 kcal/mol; (in CCCC(C)O) -11.2 kcal/mol.
Consider `CCCCCCc1cccc2ccccc12`, for which, for the setting “in OCCOCCO”, the “solvation free energy, 298 K” value was -8.95 kcal/mol.
Regarding `Cc1c[nH]c2ccccc12`, the “solvation free energy, 298 K” value (in O) was -5.88 kcal/mol.
For the compound `Cc1cccc(C)c1O`, the “solvation free energy, 298 K” value runs as follows: (in CC(C)CC(C)(C)C) -6.55 kcal/mol; (in O) -5.26 kcal/mol.
Regarding `C=CC(C)(CCC=C(C)C)OC(=O)CCC` (stereo unspecified), the “solvation free energy, 298 K” value (in O) was -3.38 kcal/mol.
On the same count and under the same terms, then `CCCCNCc1ccc(C)cc1`, with -5.47 kcal/mol; and `O=NN1CCCCC1`, with -6.34 kcal/mol.
Take `CCCCCCCCCCCCCCCCCCCCCCCCC`: the “solvation free energy, 298 K” value reads like this: (in CC(=O)N(C)C) -17.1 kcal/mol; (in CC(C)(C)O) -15.3 kcal/mol; (in CN(C)C=O) -17.1 kcal/mol; (in COC(C)(C)C) -17.1 kcal/mol; (in O) 5.39 kcal/mol.
Turning to `CCBr`, the “solvation free energy, 298 K” value was -3.23 kcal/mol (in Brc1cccc2ccccc12); -2.91 kcal/mol (in C=CCCCCCCCCCCCCCC); -3.44 kcal/mol (in CC(=O)N(C)C); -3.32 kcal/mol (in CC(=O)OCc1ccccc1); -2.95 kcal/mol (in CC(C)CC(C)(C)C); -3.53 kcal/mol (in CCC(C)=O). The “solvation free energy, 298 K” value is, setting by setting: (in CCCCCC) -3.14 kcal/mol; (in CCCCCCC) -3.04 kcal/mol; (in CCCCCCCC) -2.99 kcal/mol; (in CCCCCCCCO) -2.88 kcal/mol; (in CCCCCl) -3.51 kcal/mol; (in CCCCO) -3.03 kcal/mol. In addition, the “solvation free energy, 298 K” value was -3.03 kcal/mol (in CCO); -3.53 kcal/mol (in CCOC(C)=O); -3.22 kcal/mol (in CN(C)C=O); -3.41 kcal/mol (in Cc1ccc(C)cc1); -3.45 kcal/mol (in ClC(Cl)(Cl)Cl); -3.77 kcal/mol (in ClC(Cl)Cl). Also, the “solvation free energy, 298 K” value (in ClCCCl) was -3.6 kcal/mol; the “solvation free energy, 298 K” value (in Clc1ccccc1) is -3.51 kcal/mol; the “solvation free energy, 298 K” value (in N#Cc1ccccc1) is -3.41 kcal/mol; the “solvation free energy, 298 K” value (in O) was -0.74 kcal/mol; the “solvation free energy, 298 K” value (in O=C1CCCCC1) is -3.55 kcal/mol; the “solvation free energy, 298 K” value (in c1ccc2ncccc2c1) was -3.31 kcal/mol.
